Measurements from article PMC7924852, “The Emericellipsins A–E from an Alkalophilic Fungus Emericellopsis alkalina Show Potent Activity against Multidrug-Resistant Pathogenic Fungi” (Journal of Fungi, 2021).
In brackets after ≈: the same amount, converted by molar mass. Where two headings read alike, the source gives them in different places. Starred links: 1 amine or outer side, 2 acyl side, 3 side chain; linkers in the order of their positions; H or OH if unused. Positions of bridges follow the written chain, without caps; N, C: chain ends. Non-standard residues stand in square brackets, D forms with d. Residues, ends and D or L forms follow the SMILES beside them. *: point of attachment. hTyr(3S-OH,4S-OH,3'-OSO3H) = N[C@H](C(=O)O)[C@H](O)[C@@H](O)c1ccc(O)c(OS(=O)(=O)O)c1; Orn(4R-OH,5R-OH) = O=C([C@H](C[C@@H](O)[C@@H](O)N[*:3])N[*:1])[*:2]; Pro(3S-OH,4S-Me) = C[C@H]1CN[C@H](C(=O)O)[C@H]1O; X1 = CCCCCOc1ccc(-c2cc(-c3ccc(C(=O)*)cc3)no2)cc1; Gln(3R-OH) = NC(=O)C[C@@H](O)[C@H](N)C(=O)O; Hyp = O=C(O)[C@@H]1C[C@@H](O)CN1

What was measured:
Aspergillus niger 1133m = assay: Sensititre YeastOne antifungal susceptibility test; format: cell-based
A. fumigatus 390m = assay: Sensititre YeastOne antifungal susceptibility test; format: cell-based; conditions: Aspergillus fumigatus
A. terreus 497 [1] = assay: Sensititre YeastOne antifungal susceptibility test; format: cell-based; conditions: Aspergillus terreus
Candida albicans 1402 = assay: Sensititre YeastOne antifungal susceptibility test; format: cell-based
C. glabrata 1402 = assay: Sensititre YeastOne antifungal susceptibility test; format: cell-based; conditions: Nakaseomyces glabratus
C. krusei 1447 = assay: Sensititre YeastOne antifungal susceptibility test; format: cell-based; conditions: Pichia kudriavzevii
C. tropicalis 156 = assay: Sensititre YeastOne antifungal susceptibility test; format: cell-based; conditions: Candida tropicalis
C. parapsilosis 571 = assay: Sensititre YeastOne antifungal susceptibility test; format: cell-based; conditions: Lodderomyces parapsilosis
[2] = test system: Cryptococcus neoformans 297; assay: Sensititre YeastOne antifungal susceptibility test; format: cell-based
Cr. laurentii 325m = assay: Sensititre YeastOne antifungal susceptibility test; format: cell-based; conditions: Papiliotrema laurentii
[3] = test system: Aspergillus niger ATCC 16404; assay: Disc-diffusion antifungal assay; format: cell-based; conditions: 40 µg/disc; A. niger ATCC 16404
A. niger 1133 m [4] = assay: Disc-diffusion antifungal assay; format: cell-based, Aspergillus niger; conditions: 40 µg/disc, pathogenic clinical isolate
A. fumigatus VKM F-37 [5] = assay: Disc-diffusion antifungal assay; format: cell-based, Aspergillus fumigatus; conditions: 40 µg/disc
A. fumigatus 390 m [6] = assay: Disc-diffusion antifungal assay; format: cell-based, Aspergillus fumigatus; conditions: 40 µg/disc, pathogenic clinical isolate
A. terreus 3 K [7] = assay: Disc-diffusion antifungal assay; format: cell-based; conditions: 40 µg/disc
A. terreus 497 [8] = assay: Disc-diffusion antifungal assay; format: cell-based; conditions: 40 µg/disc; A. terreus 497, pathogenic clinical isolate
[9] = test system: reference and clinical strains of Aspergillus; assay: Disc-diffusion antifungal assay, Aspergillus strains; format: cell-based; conditions: disc-diffusion, reference and clinical strains of Aspergillus
A. niger ATCC 16404 = assay: Broth two-fold microdilution MIC (CLSI); format: cell-based, Aspergillus niger; conditions: A. niger ATCC 16404; RPMI 1640 pH 7.0, 35 °C, 48 h, no visible growth
A. niger 1133 m [10] = assay: Broth two-fold microdilution MIC (CLSI); format: cell-based, Aspergillus niger; conditions: A. niger 1133 m clinical isolate; RPMI 1640 pH 7.0, 35 °C, 48 h
A. terreus 3 K [11] = assay: Broth two-fold microdilution MIC (CLSI); format: cell-based; conditions: A. terreus 3 K; RPMI 1640 pH 7.0, 35 °C, 48 h
A. terreus 497 [12] = assay: Broth two-fold microdilution MIC (CLSI); format: cell-based; conditions: A. terreus 497 clinical isolate; RPMI 1640 pH 7.0, 35 °C, 48 h
A. fumigatus VKM F-37 [13] = assay: Broth two-fold microdilution MIC (CLSI); format: cell-based, Aspergillus fumigatus; conditions: A. fumigatus VKM F-37; RPMI 1640 pH 7.0, 35 °C, 48 h
A. fumigatus 390 m [14] = assay: Broth two-fold microdilution MIC (CLSI); format: cell-based, Aspergillus fumigatus; conditions: A. fumigatus 390 m clinical isolate; RPMI 1640 pH 7.0, 35 °C, 48 h
[15] = Sensititre YeastOne, Aspergillus niger 1133m clinical isolate, read-out: MIC
[16] = Sensititre YeastOne, A. fumigatus 390m clinical isolate, read-out: MIC
[17] = Sensititre YeastOne, A. terreus 497 clinical isolate, read-out: MIC
[18] = Sensititre YeastOne, Candida albicans 1402 clinical isolate, read-out: MIC
[19] = Sensititre YeastOne, C. glabrata 1402 clinical isolate, read-out: MIC
[20] = Sensititre YeastOne, C. krusei 1447 clinical isolate, read-out: MIC
[21] = Sensititre YeastOne, C. tropicalis 156 clinical isolate, read-out: MIC
[22] = Sensititre YeastOne, C. parapsilosis 571 clinical isolate, read-out: MIC
[23] = Sensititre YeastOne, Cryptococcus neoformans 297 clinical isolate, read-out: MIC
[24] = Sensititre YeastOne, Cr. laurentii 325m clinical isolate, read-out: MIC

Row | Compound | MIC (Aspergillus niger 1133m; Aspergillus niger, 1133M) [µg/mL] | MIC (A. fumigatus 390m; 390M) [µg/mL] | MIC (A. terreus 497 [1]; 497) [µg/mL] | MIC (Candida albicans 1402; Candida albicans, 1402) [µg/mL] | MIC (C. glabrata 1402; 1402) [µg/mL] | MIC (C. krusei 1447; 1447) [µg/mL] | MIC (C. tropicalis 156; 156) [µg/mL] | MIC (C. parapsilosis 571; 571) [µg/mL] | MIC ([2]; Cryptococcus neoformans, 297) [µg/mL] | MIC (Cr. laurentii 325m; 325M) [µg/mL] | MIC (Aspergillus niger 1133m; [15]) [µg/mL] | MIC (A. fumigatus 390m; [16]) [µg/mL] | MIC (A. terreus 497 [1]; [17]) [µg/mL] | MIC (Candida albicans 1402; [18]) [µg/mL] | MIC (C. glabrata 1402; [19]) [µg/mL] | MIC (C. krusei 1447; [20]) [µg/mL] | MIC (C. tropicalis 156; [21]) [µg/mL] | MIC (C. parapsilosis 571; [22]) [µg/mL] | MIC [2, 23] [µg/mL] | MIC (Cr. laurentii 325m; [24]) [µg/mL] | also measured
1 | CC(=O)N1CCN(c2ccc(OCC3COC(Cn4ccnc4)(c4ccc(Cl)cc4Cl)O3)cc2)CC1 (centres unmarked) [KZ, ketoconazole] | 16 (≈ 30.1 µM) | 8 (≈ 15.1 µM) | 8 (≈ 15.1 µM) | 4 (≈ 7.53 µM) | 4 (≈ 7.53 µM) | 0.5 (≈ 0.941 µM) | 0.5 (≈ 0.941 µM) | 0.5 (≈ 0.941 µM) | 0.06 (≈ 0.113 µM) | 0.12 (≈ 0.226 µM) | – | – | – | – | – | – | – | – | – | – | –
2 | CCCCCOc1ccc(-c2cc(-c3ccc(C(=O)N[C@H]4C[C@@H](O)[C@@H](O)NC(=O)[C@@H]5[C@@H](O)[C@@H](C)CN5C(=O)[C@H]([C@H](O)CC(N)=O)NC(=O)[C@H]([C@H](O)[C@@H](O)c5ccc(O)c(OS(=O)(=O)O)c5)NC(=O)[C@@H]5C[C@@H](O)CN5C(=O)[C@H]([C@@H](C)O)NC4=O)cc3)no2)cc1 [MF, micafungin] (X1-[Orn(4R-OH,5R-OH)]T[Hyp][hTyr(3S-OH,4S-OH,3'-OSO3H)][Gln(3R-OH)][Pro(3S-OH,4S-Me)]; lactam 1-C) | > 8 | > 8 | > 8 | 0.03 (≈ 0.0236 µM) | 0.015 (≈ 0.0118 µM) | 0.12 (≈ 0.0945 µM) | 0.03 (≈ 0.0236 µM) | 1 (≈ 0.787 µM) | > 8 | > 8 | – | – | – | – | – | – | – | – | – | – | –
3 | CC[C@@H]([C@H](C)O)n1ncn(-c2ccc(N3CCN(c4ccc(OC[C@@H]5CO[C@@](Cn6cncn6)(c6ccc(F)cc6F)C5)cc4)CC3)cc2)c1=O [PZ, posaconazole] | – | – | – | – | – | – | – | – | – | – | 0.5 (≈ 0.713 µM) | 0.25 (≈ 0.357 µM) | 0.12 (≈ 0.171 µM) | 0.5 (≈ 0.713 µM) | > 8 | 0.5 (≈ 0.713 µM) | > 8 | 1 (≈ 1.43 µM) | 0.25 (≈ 0.357 µM) | 1 (≈ 1.43 µM) | –
4 | C[C@@H](c1ncncc1F)[C@](O)(Cn1cncn1)c1ccc(F)cc1F [VOR, voriconazole] | – | – | – | – | – | – | – | – | – | – | 8 (≈ 22.9 µM) | 0.5 (≈ 1.43 µM) | 0.25 (≈ 0.716 µM) | 1 (≈ 2.86 µM) | 8 (≈ 22.9 µM) | 1 (≈ 2.86 µM) | 4 (≈ 11.5 µM) | 1 (≈ 2.86 µM) | 0.25 (≈ 0.716 µM) | 0.5 (≈ 1.43 µM) | –
5 | Methyldecanoyl-MePro-AHMOD-Ser-Aib-Ile-Iva-βAla-Alaol-Glyol [EmiC, emericellipsin C, homologue of emericellipsin A, nonribosomal peptaibol] | – | – | – | – | – | – | – | – | – | – | – | – | – | – | – | – | – | – | – | – | Zone of Inhibition [3]: 9 ± 0.31 mm; Zone of Inhibition (A. niger 1133 m [4]): 0 mm; Zone of Inhibition (A. fumigatus VKM F-37 [5]): 0 mm; Zone of Inhibition (A. fumigatus 390 m [6]): 0 mm; Zone of Inhibition (A. terreus 3 K [7]): 0 mm; Zone of Inhibition (A. terreus 497 [8]): 0 mm; antifungal activity against Aspergillus strains (in words) [9]: low activity only against A. niger strains; Minimal Inhibitory Concentration (MIC) (A. niger ATCC 16404): 32 µg/mL; Minimal Inhibitory Concentration (MIC) (A. niger 1133 m [10]): 32 µg/mL; Minimal Inhibitory Concentration (MIC) (A. terreus 3 K [11]): 8 µg/mL; Minimal Inhibitory Concentration (MIC) (A. terreus 497 [12]): 8 µg/mL; Minimal Inhibitory Concentration (MIC) (A. fumigatus VKM F-37 [13]): 16 µg/mL; Minimal Inhibitory Concentration (MIC) (A. fumigatus 390 m [14]): 16 µg/mL
